{"source": "patent US20210324005A1", "about": "“Beta-Arrestin Effectors and Compositions and Methods of Use Thereof” (Trevena, Inc., priority 2020, published 2021)", "key": {"[1]": {"tested_on": "D-Dimer response", "test": "Reduction in IAS and FAS D-Dimer response in patients with COVID-19 infection", "format": "in vivo, human", "conditions": "COVID-19 patients, infused at 12 mg/hr for up to 7 days", "experimental": "D-Dimer formation is elevated in patients with ARDS and COVID. A study was performed to determine the ability of TRV027 to reduce the effects of D-Dimer formation. […] Each group was monitored for an IAS D-Dimer response (>30% reduction) and a FAS D-Dimer response (>30% reduction). In the control group, 2/8 patients had greater than a 30% reduction in the IAS D-Dimer response and 1/7 patients had greater than a 30% reduction in the FAS D-Dimer response. […] Therefore, the data illustrates the effect of a peptide as provided for herein can have on the reduction in the D-Dimer response. It is anticipated that the reduction in the D-Dimer response as measured by these assays will lead to clinical benefit in patients that are infected and/or hospitalized with COVID-19."}, "[2]": {"target": "T1, rat AT1aR (Rattus norvegicus, UniProt P25095)", "T1 sequence (P25095 1-359)": "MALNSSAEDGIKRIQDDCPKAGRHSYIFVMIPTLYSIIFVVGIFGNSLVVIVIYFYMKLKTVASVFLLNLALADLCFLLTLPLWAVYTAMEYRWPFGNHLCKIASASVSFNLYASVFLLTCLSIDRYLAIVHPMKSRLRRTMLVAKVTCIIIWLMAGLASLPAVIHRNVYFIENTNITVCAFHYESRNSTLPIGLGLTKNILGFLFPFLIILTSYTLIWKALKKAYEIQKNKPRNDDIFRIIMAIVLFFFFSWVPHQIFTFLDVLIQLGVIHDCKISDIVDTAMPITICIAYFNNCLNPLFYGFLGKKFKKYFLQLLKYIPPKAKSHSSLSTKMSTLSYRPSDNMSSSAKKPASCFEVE", "test": "PathHunter β-arrestin-2 recruitment assay, rat AT1aR", "format": "cell-based", "conditions": "PathHunter β-arrestin HEK293 cells; inactive = EC50 greater than 10 uM", "experimental": "The proximal event in β-arrestin function mediated by GPCRs is recruitment to receptors following ligand binding and receptor phosphorylation by GRK's. Thus, the measure of β-arrestin recruitment was used to determine ligand efficacy for β-arrestin function.\nB-arrestin-2 recruitment to the human and rat angiotensin 2 type 1 receptor (human AT1R and rat AT1aR, respectively) was measured with the PathHunter™ β-arrestin assay (DiscoveRx Corporation, Fremont Calif.). Cells, plasmid(s), and detection reagent(s) were purchased from DiscoveRx, and assays were performed per the manufacturer's instructions. Human AT1R and rat AT1aR were cloned into the pCMV-ProLink vector, verified by sequencing, and transfected into PathHunter β-arrestin HEK293 cells. Stably transfected clonal cell lines were selected with Hygromycin and G418. These clonal cell lines were used for all experiments.\nFor assays, 25,000 cells were seeded per well in 96-well microplates in volumes of 90 μL and allowed to grow overnight at 37° C. in 5% CO2. Peptides provided herein were dissolved in deionized water to a concentration of 1 mM. […] The microplates were then incubated at room temperature for 60 minutes, and then luminescence was measured using a NOVOstar microplate reader purchased from BMG Labtech. B-arrestin-2 recruitment to receptors was measured as relative luminescence intensity expressed in arbitrary units."}, "[3]": {"target": "T2, human angiotensin 2 type 1 receptor (human, UniProt P30556 1-359)", "T2 sequence (looked up)": "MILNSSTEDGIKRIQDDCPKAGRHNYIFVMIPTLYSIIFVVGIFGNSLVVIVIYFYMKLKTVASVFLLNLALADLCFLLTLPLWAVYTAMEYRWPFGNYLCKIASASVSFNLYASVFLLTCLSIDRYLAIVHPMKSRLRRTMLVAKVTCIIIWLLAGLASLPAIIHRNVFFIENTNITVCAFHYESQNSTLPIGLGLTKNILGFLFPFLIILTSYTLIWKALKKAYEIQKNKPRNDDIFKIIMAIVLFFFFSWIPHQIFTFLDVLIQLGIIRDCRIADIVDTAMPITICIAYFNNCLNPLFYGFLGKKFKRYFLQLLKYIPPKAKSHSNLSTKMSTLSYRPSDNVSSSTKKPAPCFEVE", "test": "cell-based or functional assay"}, "[4]": {"target": "T3, rat angiotensin 2 type 1 receptor (rat, UniProt P25095 1-359)", "T3 sequence (looked up)": "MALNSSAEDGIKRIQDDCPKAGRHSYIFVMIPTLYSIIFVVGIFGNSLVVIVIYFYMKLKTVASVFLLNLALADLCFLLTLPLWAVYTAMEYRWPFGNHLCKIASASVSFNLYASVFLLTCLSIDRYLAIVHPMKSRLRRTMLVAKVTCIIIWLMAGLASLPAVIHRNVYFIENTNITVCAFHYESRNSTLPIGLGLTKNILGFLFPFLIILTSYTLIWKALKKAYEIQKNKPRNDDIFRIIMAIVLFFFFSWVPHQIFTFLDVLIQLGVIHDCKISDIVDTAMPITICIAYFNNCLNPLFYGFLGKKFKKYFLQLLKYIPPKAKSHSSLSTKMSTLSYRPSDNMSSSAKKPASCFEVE", "test": "cell-based or functional assay"}}}
{"molecule": "CC[C@H](C)[C@H](NC(=O)[C@H](Cc1ccc(O)cc1)NC(=O)[C@@H](NC(=O)[C@H](CCCNC(=N)N)NC(=O)CNC)C(C)C)C(=O)N[C@@H](Cc1cnc[nH]1)C(=O)N1CCC[C@H]1C(=O)N[C@H](C)C(=O)O", "note": "[SEQ ID NO: 27, Sar-Arg-Val-Tyr-Ile-His-Pro-D-Ala-OH]", "values": [{"measurement": "patients with greater than 30% reduction in the FAS D-Dimer response", "setting": "[1]", "result": "4 out of 9"}, {"measurement": "patients with greater than 30% reduction in the IAS D-Dimer response", "setting": "[1]", "result": "5 out of 11"}]}
{"molecule": "CCCCC(=O)N(Cc1ccc(-c2ccccc2-c2nnn[nH]2)cc1)[C@H](C(=O)O)C(C)C", "note": "[Valsartan]", "values": [{"measurement": "rat AT1aR b-arrestin2 EC50 (M)", "setting": "[2]", "result": "inactive"}]}
{"molecule": "ARVYIHPA (NMAla (N-Methyl-L-alanine) at X1; D-Ala at X8)", "note": "[SEQ ID NO: 44 (NMAla-Arg-Val-Tyr-Ile-His-Pro-D-Ala-OH)]", "values": [{"measurement": "b-arrestin2 Max (%)", "setting": "[3]", "result": 47.3, "unit": "%"}, {"measurement": "b-arrestin2 Max (%)", "setting": "[4]", "result": 71.9, "unit": "%"}]}
